In brackets after ≈: the same amount, converted by molar mass. Marks after values point to notes of the source that are not given here. Residues, ends and D or L forms follow the SMILES beside them. No end group written: not given here. *: point of attachment. Cholesteryloxycarbonyl = CC(C)CCC[C@@H](C)[C@H]1CC[C@H]2[C@@H]3CC=C4C[C@@H](OC(=O)*)CC[C@]4(C)[C@H]3CC[C@]12C
Tests used:
S. typhimurium SL1344 [1] = assay type: cell-based; details: SL1344, 18 h
Description: (§1) The MIC values of Chol-37(F34-R) were determined using the microdilution method of the Clinical and Laboratory Standards Institute. Antibacterial intensity was tested in MHB against S. aureus ATCC25923, L. monocytogenes CICC21634, S. typhimurium SL1344, and P. aeruginosa GIM1.551. The tested strains were cultured for 12 h at 37 °C. Then, the bacterial inoculum concentration was adjusted to 1 × 10^6 CFU/mL. Twofold serial dilutions covering different concentrations from 0.0039 to 256 μg/mL for each peptide were added to media containing cultures of the tested strains in 96-well plates, which were incubated at 37 °C for 18 h. The MIC values were determined by evaluating the OD600nm of the cultures.

P. aeruginosa GIM1.551 [2] = assay type: cell-based; details: GIM1.551, 12 h
Description: as §1
(§2) The effects of salt ion and serum on the antibacterial activities of Chol-37(F34-R) were investigated by MIC assay. S. aureus ATCC25923 and P. aeruginosa GIM1.551 were used as the tested strains. The MIC values were determined at recommended doses of NaCl (8.766 g/L), CaCl2 (0.039 g/L), and fetal bovine serum (20%).
(§3) The effects of salt ion and serum on antibacterial activities of PMAP-37(F34-R)-C were investigated by MIC assay. a, The control MIC values were determined in the absence of physiological salts and serum. b, c, and d, The final concentrations of NaCl, CaCl2, and serum were 8.766 g/L, 0.039 g/L, and 20% (v/v), respectively.

S. aureus ATCC25923 [3] = assay type: cell-based; details: ATCC25923, 12 h
Description: as §1, §2, §3

[4] = system: L. monocytogenes CICC21634; assay: MIC assay, microdilution method; assay type: cell-based
Description: as §1

P. aeruginosa GIM1.551 [5] = assay: MIC assay, microdilution method; assay type: cell-based
Description: as §1

S. aureus ATCC25923 [6] = assay: MIC assay, microdilution method; assay type: cell-based
Description: as §1

S. aureus ATCC25923 [7] = assay: S. aureus ATCC25923-infected mouse peritonitis model; assay type: in vivo; details: i.p. 20 μL of 1 μg/μL once per day for 3 days
Description: The dissemination of S. aureus ATCC25923 to target organs was assessed in the peritonitis model. The assessment was performed on the basis of the method described previously with minor modifications. Six groups of 60 mice (10 mice per group) were randomly divided into PMAP-37, PMAP-37(F34-R), Chol-37(F34-R), ampicillin sodium, PBS, and blanks group. Bacterial suspension (1 × 10^8 CFU/mL, 100 μL) was intraperitoneally injected into mice. After 2 h inoculation, PMAP-37 (20 μL, 1 μg/μL), PMAP-37(F34-R) (20 μL, 1 μg/μL), Chol-37(F34-R) (20 μL, 1 μg/μL), ampicillin sodium (20 μL, 1 μg/μL), or PBS (20 μL) was intraperitoneally injected into the mice, and the treatment program was implemented once per day for 3 days. Mice in the blank group were not challenged and treated. […] Aliquots of diluted homogenized tissues were spread on LB agar, on which the bacterial burden was determined for analysis. […] Pathological changes were scored as follows: a score of 1 indicated no pathology, 2 indicated perivascular infiltrates, 3 indicated perivascular and interstitial infiltrates affecting < 20% of the section, 4 indicated perivascular and interstitial infiltrates affecting 20 to 50% of the section, and 5 indicated perivascular and interstitial infiltrates affecting > 50% of the section.

S. aureus ATCC25923 [8] = assay: S. aureus ATCC25923-infected mouse abscess model; assay type: in vivo; details: 10 μL of 1 μg/μL once per day for 3 days, day 3, n = 5
Source text: (§4) The abscess model of mouse was built against S. aureus ATCC25923 or P. aeruginosa GIM1.551 as previously described with minor modifications. Twelve groups of 60 mice (5 mice per group) were randomly divided into PMAP-37, PMAP-37(F34-R), Chol-37(F34-R), ampicillin sodium (against S. aureus ATCC25923-infected mouse abscess model), benzylpenicillin potassium (against P. aeruginosa GIM1.551-infected mouse abscess model), PBS, and blank groups. The fur on the back of each mouse was shaved. Bacterial suspensions (1 × 10^8 CFU/mL, 50 μL) were injected into the right side of the dorsum underneath the thin skeletal muscle. After 1 h of inoculation, the infected areas were directly injected with PMAP-37, (10 μL, 1 μg/μL), PMAP-37(F34-R) (10 μL, 1 μg/μL), Chol-37(F34-R) (10 μL, 1 μg/μL), antibiotic (ampicillin sodium 10 μL, 1 μg/μL or benzylpenicillin potassium 10 μL, 1 μg/μL), or PBS (10 μL). The treatment program was conducted once per day for 3 days. Mice in the blank group were not challenged and treated. Three days after treatment, mice were euthanized with 120 mg/kg i.p. sodium pentobarbital, and their skin abscesses were harvested and homogenized as described above to assess the bacterial burden.

mouse erythrocytes = assay: Hemolytic assay; details: at 1280 μg/mL, 1 h, OD570nm, n = 5
Description: Mouse erythrocytes were diluted to a final suspension concentration of 8% (v/v). Then, 100 μL erythrocyte suspension was incubated with 100 μL peptides at different concentrations ranging from 2.5 to 1280 μg/mL. PBS and 0.2% Triton X-100 were used as negative and positive controls, respectively. After 1 h of incubation, the tested samples were centrifuged for 5 min at 1000 g. Lastly, the absorbance of the supernatant of tested samples was measured at 570 nm. The percentage of hemolytic was obtained using the following formula: Hemolysis rate = [OD570nm (peptides) − OD570nm (PBS)]/[OD570nm (Triton X − 100) − OD570nm (PBS)] × 100 % .

NIH 3 T3 cells = assay: Cytotoxicity assay (MTT); details: 24 h, at a concentration of 1280 μg/mL, n = 5
Description: NIH 3 T3 cells were seeded in a 96-well with a density of 1× 10^4 cells per well and incubated in 37 °C for 24 h. Afterward, the cell medium was replaced by fresh DMEM containing various concentrations of peptides (2.5–1280 μg/mL). After 24 h incubation, 20 μL MTT agent (5 mg/mL) was added to each well and incubated for 4 h. Then, the supernatant of each well was replaced with 150 μL DMSO. The absorbance was measured by a microplate reader (FlexStation III) at 570 nm.

P. aeruginosa GIM1.551 [9] = assay: P. aeruginosa GIM1.551-infected mouse knife injury model; assay type: in vivo; details: topical 10 μL of 1 μg/μL once per day for 7 days, day 7
Description: The P. aeruginosa strain GIM1.551 was used to build knife wound model of mouse as described elsewhere with minor modifications. A total of 30 mice were randomly divided into six groups. Briefly, the fur on the back of each mouse was removed by shaving. A 1.5 cm linear knife wound was made on the back of each mouse and infected by direct seeding with bacterial suspensions (1 × 10^8 CFU/mL, 50 μL). One day postinfection, the wounds were administered with PMAP-37 (10 μL, 1 μg/μL), PMAP-37(F34-R) (10 μL, 1 μg/μL), Chol-37(F34-R) (10 μL, 1 μg/μL), ampicillin sodium (10 μL, 1 μg/μL), or PBS (10 μL), and the treatment program was performed once per day for 7 days. The mice with no infection and treatment were used as blank control. The wounds of mice were wrapped in gauze bandages that were changed every day. Seven days after treatment, mice were euthanized with 120 mg/kg intraperitoneal (i.p.) sodium pentobarbital and their wound tissues were collected. The wound tissues were homogenized with a basic homogenizer. Following a 10-fold serial dilution in PBS, the homogenates were spread on TSB agar plates. The bacterial burden was determined after incubation at 37 °C for 18 h.

P. aeruginosa GIM1.551 [10] = assay: P. aeruginosa GIM1.551-infected mouse abscess model; assay type: in vivo; details: P. aeruginosa GIM1.551 model; 10 μL of 1 μg/μL once per day for 3 days, day 3; n = 5
Source text: as §4

[11] = system: L. monocytogenes CICC21634; assay: Inhibition zone assay (Kirby-Bauer disk diffusion); assay type: cell-based; parameters: key: +, peptide have antibacterial activity; details: disk with 10 μg, 37 °C, 18 h
Description: (§5) The antibacterial activity of Chol-37(F34-R) was detected using the Kirby-Bauer diffusion method. Four bacterial strains were used as experimental strains: L. monocytogenes CICC21634 cultured with BHI, P. aeruginosa GIM1.551 cultured with TSB, S. aureus ATCC25923, and S. typhimurium SL1344 cultured with LB medium. Briefly, the bacterial cells were cultured for 12 h at 37 °C in appropriate culture media, and the bacterial cell suspension was spread on the corresponding solid medium. Then, the disks containing 10 μg peptide or ceftiofur sodium were attached to the solid medium and incubated at 37 °C for 18 h. Lastly, the diameter of the inhibition zone was measured.

S. typhimurium SL1344 [12] = assay: Inhibition zone assay (Kirby-Bauer disk diffusion); assay type: cell-based; parameters: key: +, peptide have antibacterial activity; details: disk with 10 μg, 37 °C, 18 h
Description: as §5

P. aeruginosa GIM1.551 [13] = assay: Inhibition zone assay (Kirby-Bauer disk diffusion); assay type: cell-based; parameters: key: +, peptide have antibacterial activity; details: disk with 10 μg, 37 °C, 18 h
Description: as §5

S. aureus ATCC25923 [14] = assay: Inhibition zone assay (Kirby-Bauer disk diffusion); assay type: cell-based; parameters: key: +, peptide have antibacterial activity; details: disk with 10 μg, 37 °C, 18 h
Description: as §5

Row | Compound | MIC (S. typhimurium SL1344 [1]) | MIC, CaCl2 (P. aeruginosa GIM1.551 [2]) [µg/mL] | MIC, Fetal bovine serum (P. aeruginosa GIM1.551 [2]) [µg/mL] | MIC, NaCl (P. aeruginosa GIM1.551 [2]) [µg/mL] | MIC, control (P. aeruginosa GIM1.551 [2]) [µg/mL] | MIC, CaCl2 (S. aureus ATCC25923 [3]) [µg/mL] | MIC, Fetal bovine serum (S. aureus ATCC25923 [3]) [µg/mL] | MIC, NaCl (S. aureus ATCC25923 [3]) [µg/mL] | MIC, control (S. aureus ATCC25923 [3]) [µg/mL] | MIC ([4]; CICC21634, 18 h) | MIC (P. aeruginosa GIM1.551 [5]; GIM1.551, 18 h) | MIC (S. aureus ATCC25923 [6]; ATCC25923, 18 h) | also measured
1 | GLLSRLRDFLSDRGRRLGEKIERIGQKIKDLSERFQS [PMAP-37(F34-R)] | 1** μg/mL | 1 | 1 | 1 | 1 | 0.0156 | 0.0156 | 0.0156 | 0.0156 | 2* μg/mL | 1* μg/mL | 0.0156* μg/mL | –
2 | CC1(C)S[C@@H]2[C@H](NC(=O)Cc3ccccc3)C(=O)N2[C@H]1C(=O)O [benzylpenicillin potassium] | – | – | – | – | – | – | – | – | – | – | – | – | tissue damage of liver and spleen (histopathology) (S. aureus ATCC25923 [7]): eliminated most of the damaged tissues; bacterial load in the liver and spleen (S. aureus ATCC25923 [7]; n = 5): reduced the bacterial load; bacterial load in the abscess (S. aureus ATCC25923 [8]): reduced bacterial load in the abscess
3 | CC[C@H](C)[C@H](NC(=O)[C@H](CCCNC(=N)N)NC(=O)[C@H](CCC(=O)O)NC(=O)[C@@H](NC(=O)[C@H](CCCCN)NC(=O)[C@H](CCC(=O)O)NC(=O)CNC(=O)[C@H](CC(C)C)NC(=O)[C@H](CCCNC(=N)N)NC(=O)[C@H](CCCNC(=N)N)NC(=O)CNC(=O)[C@H](CCCNC(=N)N)NC(=O)[C@H](CC(=O)O)NC(=O)[C@H](CO)NC(=O)[C@H](CC(C)C)NC(=O)[C@H](Cc1ccccc1)NC(=O)[C@H](CC(=O)O)NC(=O)[C@H](CCCNC(=N)N)NC(=O)[C@H](CC(C)C)NC(=O)[C@H](CCCNC(=N)N)NC(=O)[C@H](CO)NC(=O)[C@H](CC(C)C)NC(=O)[C@H](CC(C)C)NC(=O)CNC(=O)O[C@H]1CC[C@@]2(C)C(=CC[C@H]3[C@@H]4CC[C@H]([C@H](C)CCCC(C)C)[C@@]4(C)CC[C@@H]32)C1)[C@@H](C)CC)C(=O)NCC(=O)N[C@@H](CCC(N)=O)C(=O)N[C@@H](CCCCN)C(=O)N[C@H](C(=O)N[C@@H](CCCCN)C(=O)N[C@@H](CC(=O)O)C(=O)N[C@@H](CC(C)C)C(=O)N[C@@H](CO)C(=O)N[C@@H](CCC(=O)O)C(=O)N[C@@H](CCCNC(=N)N)C(=O)N[C@@H](Cc1ccccc1)C(=O)N[C@@H](CCC(N)=O)C(=O)N[C@@H](CO)C(=O)O)[C@@H](C)CC [Chol-37(F34-R)] (Cholesteryloxycarbonyl-GLLSRLRDFLSDRGRRLGEKIERIGQKIKDLSERFQS-OH) | – | 0.5 (≈ 0.104 µM) | 0.5 (≈ 0.104 µM) | 0.5 (≈ 0.104 µM) | 0.5 (≈ 0.104 µM) | 0.0078 (≈ 0.00163 µM) | 0.0078 (≈ 0.00163 µM) | 0.0078 (≈ 0.00163 µM) | 0.0078 (≈ 0.00163 µM) | – | – | – | hemolysis rate (mouse erythrocytes): less than 5%; cell survival rate (NIH 3 T3 cells): over 80%; MIC ([4]; L. monocytogenes CICC21634, MHB, 1 × 10^6 CFU/mL, 37 °C, 18 h, OD600nm, three independent experiments performed in triplicate): 0.5** μg/mL; MIC (P. aeruginosa GIM1.551 [5]; P. aeruginosa GIM1.551, MHB, 1 × 10^6 CFU/mL, 37 °C, 18 h, OD600nm, three independent experiments performed in triplicate): 0.5** μg/mL; MIC (S. aureus ATCC25923 [6]; S. aureus ATCC25923, MHB, 1 × 10^6 CFU/mL, 37 °C, 18 h, OD600nm, three independent experiments performed in triplicate): 0.0078** μg/mL
4 | GLLSRLRDFLSDRGRRLGEKIERIGQKIKDLSEFFQS [PMAP-37] | 4 µg/mL | 2 | 2 | 2 | 2 | 0.0313 | 0.0313 | 0.0313 | 0.0313 | 4 µg/mL | 2 µg/mL | 0.0313 µg/mL | –
5 | CC1(C)S[C@@H]2[C@H](NC(=O)[C@H](N)c3ccccc3)C(=O)N2[C@H]1C(=O)O [ampicillin sodium] | – | – | – | – | – | – | – | – | – | – | – | – | wound size vs PBS group (P. aeruginosa GIM1.551 [9]): smaller wound sizes than that of the PBS group; bacterial load in the abscess (P. aeruginosa GIM1.551 [10]): reduced bacterial load in the abscess
6 | CO/N=C(\C(=O)N[C@@H]1C(=O)N2C(C(=O)[O-])=C(CSC(=O)c3ccco3)CS[C@H]12)c1csc(N)n1.[Na+] [ceftiofur sodium] | – | – | – | – | – | – | – | – | – | – | – | – | in vitro antibacterial activity (disk diffusion) [11]: +; in vitro antibacterial activity (disk diffusion) (S. typhimurium SL1344 [12]): +; in vitro antibacterial activity (disk diffusion) (P. aeruginosa GIM1.551 [13]): +; in vitro antibacterial activity (disk diffusion) (S. aureus ATCC25923 [14]): +
